# Measurements: article PMC4773385, “Drug design from the cryptic inhibitor envelope” (Nature Communications, 2016)
# Where two headings read alike, the source gives them in different places.
# Columns and labels:
# Escherichia coli W3110 = assay: MIC assay; type: cell-based; conditions: for MIC: E. coli
# Escherichia coli LpxC = molecular target: T1, Escherichia coli LpxC (Escherichia coli, UniProt P0A725); assay: LpxC enzymatic assay (radiolabelled substrate, slow tight-binding kinetics); type: biochemical
# T1 sequence (P0A725 1-305): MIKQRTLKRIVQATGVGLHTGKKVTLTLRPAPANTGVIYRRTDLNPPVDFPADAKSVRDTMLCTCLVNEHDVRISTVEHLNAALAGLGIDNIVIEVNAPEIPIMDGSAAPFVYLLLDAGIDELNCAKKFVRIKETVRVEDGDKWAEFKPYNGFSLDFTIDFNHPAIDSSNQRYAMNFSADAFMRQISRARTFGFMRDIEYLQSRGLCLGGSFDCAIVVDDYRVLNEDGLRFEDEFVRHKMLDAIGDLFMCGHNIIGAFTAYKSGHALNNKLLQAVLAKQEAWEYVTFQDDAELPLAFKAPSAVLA
# Procedure: The radiolabelled substrate for the LpxC enzymatic assays, [α-^32P] UDP-3-O-[(R)-3-hydroxymyristoyl]-N-acetylglucosamine, and the unlabelled carrier substrate were prepared as previously described. […] Serial twofold dilutions of each inhibitor were prepared in DMSO and added to the reaction mixture with a 10-fold dilution. The assays were initiated by addition of purified LpxC protein into the reaction mix with 1:4 dilution to the final concentration as specified.
# The KM value was determined by varying substrate concentrations from 0.4 to 50 μM with 0.2 nM of LpxC. To study the slow, tight-binding inhibition, LpxC activity was assessed in the presence of varying inhibitor concentrations. […] The following time-dependent equation was used to fit the data: […]
# The Ki* was determined by analysing the rate of product accumulation after formation of the stable EI* complex. […] The Morrison's quadratic equation was used to fit the fractional activity data to determine Ki^*app:
# where [E]T and [I]T represent the total enzyme and inhibitor concentrations, respectively. The inhibition constant Ki* is converted from Ki^*app according to the following relationship:
# For two-step slow-binding inhibition, kinetic parameters k5, k6 and Ki were extracted from curve fitting of experimental kobs values to inhibitor concentrations based on equations (5 and 6).
# Proteus mirabilis = assay: MIC assay; type: cell-based; design: MIC: unit not given here
# [1] = test system: Salmonella typhimurium LT2; assay: MIC assay; type: cell-based
# [2] = test system: Pseudomonas aeruginosa PAO1; assay: MIC assay; type: cell-based
# [3] = test system: Acinetobacter baumannii 17978; assay: MIC assay; type: cell-based
# [4] = test system: Klebsiella pneumoniae 10031; assay: MIC assay; type: cell-based; design: MIC: unit not given here
# Enterobacter cloacae = assay: MIC assay; type: cell-based; design: MIC: unit not given here
# Morganella morganii = assay: MIC assay; type: cell-based
# [5] = test system: Vibrio cholerae P4 (P27459DctxAB::KmR, SmR); assay: MIC assay; type: cell-based; design: MIC: unit not given here
# Chlamydia trachomatis = assay: Minimal chlamydiacidal concentration (MCC); type: cell-based; design: Minimal chlamydiacidal concentration (MCC), listed in MIC column: unit not given here
# [6] = E. coli LpxC, 20 pM enzyme, 5 μM substrate, 30 °C, Morrison fit, read-out: Ki* (inhibition constant of the stable EI* complex)
# [7] = fit of kobs vs inhibitor concentration, 30 μM substrate, 0.1 nM enzyme
structure (smiles),measurement,setting,value
C[C@](O)([C@H](NC(=O)c1ccc(C#CC#Cc2ccc(N)cc2)cc1)C(=O)NO)C(F)(F)F [LPC-083],MIC,Escherichia coli W3110,0.1 µg/mL
same,compromised inhibitory effect (Ki*) over parent compound LPC-037,Escherichia coli LpxC; E. coli LpxC,ninefold
same,inhibition constant worse than LPC-011,Escherichia coli LpxC; E. coli LpxC,fivefold
same,Ki,Escherichia coli LpxC; [6],0.125 ± 0.004 nM
CC(C)(N)[C@H](NC(=O)c1ccc(C#CC#Cc2ccc(N)cc2)cc1)C(=O)NO [LPC-040],Ki,Escherichia coli LpxC; [6],0.012 ± 0.001 nM
C[C@@](O)(C(F)F)[C@H](NC(=O)c1ccc(C#CC#Cc2ccc(N)cc2)cc1)C(=O)NO [LPC-058],Enhancement (MIC CHIR-090/MIC LPC-058),Proteus mirabilis,32
same,Enhancement (MIC LPC-011/MIC LPC-058),Proteus mirabilis,5.0
same,MIC,Proteus mirabilis,0.026
same,Enhancement (MIC CHIR-090/MIC LPC-058),[1],12
same,Enhancement (MIC LPC-011/MIC LPC-058),[1],2.8
same,MIC,[1],0.021 µg/mL
same,Enhancement (MIC CHIR-090/MIC LPC-058),[2],5.0
same,Enhancement (MIC LPC-011/MIC LPC-058),[2],2.0
same,MIC,[2],0.167 µg/mL
same,MIC,[3]; Acinetobacter baumannii,0.39 µg/mL
same,Enhancement (MIC CHIR-090/MIC LPC-058),[3]; Acinetobacter baumannii 17978,> 128
same,Enhancement (MIC LPC-011/MIC LPC-058),[3]; Acinetobacter baumannii 17978,25
same,Enhancement (MIC CHIR-090/MIC LPC-058),[4],13
same,Enhancement (MIC LPC-011/MIC LPC-058),[4],3.8
same,MIC,[4],0.0026
same,Enhancement (MIC CHIR-090/MIC LPC-058),Enterobacter cloacae,12
same,Enhancement (MIC LPC-011/MIC LPC-058),Enterobacter cloacae,2.0
same,MIC,Enterobacter cloacae,0.026
same,Enhancement (MIC CHIR-090/MIC LPC-058),Escherichia coli W3110; Escherichia coli W3110,7.2
same,Enhancement (MIC LPC-011/MIC LPC-058),Escherichia coli W3110; Escherichia coli W3110,2.2
same,enhancement of potency (Ki*) over CHIR-090,Escherichia coli LpxC; E. coli LpxC,44 fold
same,enhancement of potency (Ki*) over LPC-011,Escherichia coli LpxC; E. coli LpxC,7 fold
same,Ki,Escherichia coli LpxC; [6],0.0035 ± 0.0002 nM
same,k5 (forward rate from EI to EI*),Escherichia coli LpxC; [7],0.39 ± 0.02 min⁻¹
same,k6 (reverse rate from EI* to EI),Escherichia coli LpxC; [7],0.0014 ± 0.0001 min⁻¹
same,Ki,"Escherichia coli LpxC; fit of kobs vs inhibitor concentration, 30 μM substrate, 0.1 nM enzyme, Ki* constrained, read-out: Ki (inhibition constant of the initial encounter complex EI)",0.973 ± 0.128 nM
same,Enhancement (MIC CHIR-090/MIC LPC-058),Morganella morganii,55
same,Enhancement (MIC LPC-011/MIC LPC-058),Morganella morganii,2.0
same,MIC,Morganella morganii,0.019 g/mL
same,Enhancement (MIC CHIR-090/MIC LPC-058),[5],31
same,Enhancement (MIC LPC-011/MIC LPC-058),[5],3.9
same,MIC,[5],0.016
same,"Minimal chlamydiacidal concentration (MCC), listed in MIC column",Chlamydia trachomatis,0.08
same,Enhancement (MIC CHIR-090/MIC LPC-058),Chlamydia trachomatis; MCC,100
same,Enhancement (MIC LPC-011/MIC LPC-058),Chlamydia trachomatis; MCC,6.0
C[C@@H](O)[C@H](NC(=O)c1ccc(C#CC#Cc2ccc(N)cc2)cc1)C(=O)NO [LPC-011],MIC,Proteus mirabilis,0.13
same,MIC,[1],0.06 µg/mL
same,MIC,[4],0.01
same,MIC,Enterobacter cloacae,0.052
same,MIC,Escherichia coli W3110,0.04 µg/mL
same,MIC,Morganella morganii,0.039 g/mL
same,MIC,[5],0.063
CC(C)(O)[C@H](NC(=O)c1ccc(C#CC#Cc2ccc(N)cc2)cc1)C(=O)NO [LPC-037],Ki,Escherichia coli LpxC; [6],0.014 ± 0.001 nM
